The record followed here is patent US10759799B2, “Indazole containing macrocycles and therapeutic uses thereof” (Samumed, LLC, priority 2018, dated 2020).

Where two headings read alike, the source gives them in different places.

One data set concerns the target recombinant GSK3β kinase (Homo sapiens (Human), UniProt P49841). The data set is described as follows: GSK3β kinase assay (Ser/Thr 09 peptide Z-lyte, FRET). Format: biochemical. Conditions: 46 μM ATP, one hour at room temperature, read-out: EC50 (μM) (IC50 per method). An excerpt: Representative compounds were screened using the assay procedure for GSK3β kinase activity as described below.
The GSK3β kinase assay is run using the Ser/Thr 09 peptide Z-lyte assay kit according to manufacturer's instructions (Life Technologies—a Division of Thermo-Fisher). This is a non-radioactive assay using fluorescence resonance energy transfer (FRET) between coumarin and fluorescein to detect kinase activity which is represented as ratio of coumarin emission/fluorescein emission.
Briefly, recombinant GSK3β kinase, ATP and Ser/Thr peptide 09 are prepared in 1× Kinase buffer to final concentrations of 0.04 μg/mL, 46 μM, and 4 μM respectively. The mixture is allowed to incubate with the representative compounds for one hour at room temperature. All reactions were performed in duplicate. Unphosphorylated (“0% Control”) and phosphorylated (“100% control”) forms of […] serve as control reactions.
After incubation, diluted Development Buffer is added to the reaction and allowed to further incubate for one hour at room temperature. The plate is read at Ex 400 Em 455 to detect the coumarin signal and Ex 400 Em 520 to measure the signal (EnVision Multilabel Plate Reader, PerkinElmer).
The Emission ratio (Em) is calculated as a ratio of the coumarin (C) emission signal (at 445 nm)/Fluorescein (F) emission signal (at 520 nm). The percent phosphorylation is then calculated using the following formula: [1−((Em ratio×F100%)−C100%)/((C0%−C100%)+(Em ratio×(F100%−F0%)))].
Dose-response curves are generated and inhibitory concentration (IC50) values are calculated using non-linear regression curve fit in the Dotmatics' Studies Software (Bishops Stortford, UK).

The conditions of data set [1]: DMF.
Data set [2] deals with Wnt activity (Sp5-Luc reporter, SW480 colon carcinoma cells). Put plainly: Sp5-Luc reporter gene screening assay for Wnt activity in SW480 cells. Format: cell-based. Conditions: Homo sapiens; Sp5-Luc reporter, SW480 cells, 36 to 48 hours. An excerpt: The screening assay for Wnt activity is described as follows. Reporter cell lines can be generated by stably transducing cancer cell lines (e.g., colon cancer) or primary cells (e.g., IEC-6 intestinal cells) with a lentiviral construct that includes a Wnt-responsive promoter driving expression of the firefly luciferase gene.
SW480 colon carcinoma cells were transduced with a lentiviral vector expressing luciferase with a human Sp5 promoter consisting of a sequence of eight TCF/LEF binding sites. SW480 cells stably expressing the Sp5-Luc reporter gene and a hygromycin resistance gene were selected by treatment with 150 μg/mL of hygromycin for 7 days. These stably transduced SW480 cells were expanded in cell culture and used for all further screening activities. […] For Sp5-Luc reporter gene assays, the cells were plated at 4,000 cells/well in 384-well plates with a DMEM medium containing 1% fetal bovine serum, and 1% Penicillin-Streptomycin and incubated for 36 to 48 hours at 37° C. and 5% CO2. Following incubation, 15 μl of BriteLite Plus luminescence reagent (Perkin Elmer) was added to each well of the 384-well assay plates. The plates were placed on an orbital shaker for 2 min and then luminescence was quantified using the Envision (Perkin Elmer) plate reader. Readings were normalized to DMSO only treated cells, and normalized activities were utilized for EC50 calculations using the dose-response log (inhibitor) vs. response-variable slope (four parameters) nonlinear regression feature available in GraphPad Prism 5.0 (or Dotmatics).

Data set [3] deals with primary human mesenchymal stem cells (hMSCs). Put plainly: Chondrogenesis induction in hMSCs (Rhodamine B staining intensity, EC50). It is filed as cell-based. Conditions: 6 days, Rhodamine B staining intensity of nodules. An excerpt: Representative compounds were screened using primary human mesenchymal stem cells (hMSCs) to determine their ability to induce chondrogenesis (process by which cartilage is developed).
Primary human mesenchymal stem cells (hMSCs) were purchased from Lonza (Walkersville, Md.) and expanded in Mesenchymal Stem Cell Growth Media (Lonza). Cells between passage 2 and 4 were used for the experiments.
To image chondrogenic nodules, the cells were fixed using 4% formaldehyde (Electron Microscopy Sciences), and stained with 2 μg/mL Rhodamine B (Sigma-Aldrich) and 20 μM Nile Red (Sigma-Aldrich) [Johnson K., et. al, A Stem Cell-Based Approach to Cartilage Repair, Science, (2012), 336(6082). […] Rhodamine B staining intensity of nodules in each well was normalized to the average of 3 DMSO treated wells on the same plate using Excel (Microsoft Inc.). The normalized averages (fold change over DMSO) of 3 replicate wells for each compound concentration were calculated. EC50 values were calculated using non-linear regression curve fitting in Prism 8 (Graphpad Inc.). Due to solubility limitations of some of the compounds, curve fitting was incomplete, and the highest observed activity was extrapolated to the insoluble doses for accurate EC50 determinations.
EC50 values are reported. Further, using TGF-β3 as a positive control, the concentration of representative compounds required to induce equivalent levels of chondrogenesis is reported. In addition, the maximum activity of each compound and the respective dose that each compound reached maximum chondrogenesis activity is reported.

Data set [4] has as its target recombinant DYRK1A kinase (Homo sapiens (Human), UniProt Q13627). The data set is described as follows: DYRK1A kinase assay (Ser/Thr 18 peptide Z-lyte, FRET). Format: biochemical. Conditions: 30 μM ATP, one hour at room temperature, read-out: EC50 (μM) (IC50 per method). An excerpt: Representative compounds were screened using the assay procedure for DYRK1A kinase activity as described below.
The DYRK1A kinase assay was run using the Ser/Thr 18 peptide Z-lyte assay kit according to manufacturer's instructions (Life Technologies—a Division of Thermo-Fisher). This is a non-radioactive assay using fluorescence resonance energy transfer (FRET) between coumarin and fluorescein to detect kinase activity which is represented as a ratio of coumarin emission/fluorescein emission.
Briefly, recombinant DYRK1A kinase, ATP and Ser/Thr peptide 18 were prepared in 1× Kinase buffer to final concentrations of 0.19 μg/mL, 30 μM, and 4 μM respectively. The mixture was allowed to incubate with the representative compounds for one hour at room temperature. All reactions were performed in duplicate. Unphosphorylated (“0% Control”) and phosphorylated (“100% control”) forms of Ser/Thr 18 served as control reactions. Additionally, an 11-point dose-response curve of Staurosporine (1 uM top) was run to serve as a positive compound control.
After incubation, Development Reagent A was diluted in Development Buffer then added to the reaction and allowed to further incubate for one hour at room temperature. The plate was read at Ex 400 Em 455 to detect the coumarin signal and Ex 400 Em 520 to measure the signal (EnVision Multilabel Plate Reader, PerkinElmer).
The Emission ratio (Em) was calculated as a ratio of the coumarin (C) emission signal (at 445 nm)/Fluorescein (F) emission signal (at 520 nm). The percent phosphorylation was then calculated using the following formula: [1−((Em ratio×F100%)−C100%)/((C0%−C100%)+(Em ratio×(F100%−F0%)))].

For data set [5], the system named is SW480 colon carcinoma cells. The data set is described as follows: Cell viability assay (CellTiter-Glo) in SW480 cells. It is filed as cell-based. To be noted: Homo sapiens; for EC50: 96 h, SW480 cell viability, four days, CellTiter-Glo. As for the experimental part:
Representative compounds were screened using the assay procedure to assess the effect on cell viability as described below.
SW480 colon carcinoma cells were transduced with a lentiviral vector expressing luciferase with a human Sp5 promoter consisting of a sequence of eight TCF/LEF binding sites. SW480 cells stably expressing the Sp5-Luc reporter gene and a hygromycin resistance gene were selected by treatment with 150 μg/mL of hygromycin for 7 days. These stably transduced SW480 cells were expanded in cell culture and used for all further screening activities.
For the Cell Viability Assays, the cells were plated at 2,000 cells/well in 384-well plates with a DMEM medium containing 1% fetal bovine serum, and 1% Penicillin-Streptomycin and incubated for […] at 37° C. and 5% CO2. Eight replicates of DMSO-treated cells served as controls and cells treated with compound were performed in duplicate.
After incubation, 10 μL of CellTiter-Glo (Promega) was added to each well allowed to incubate for approximately 12 minutes. This reagent “results in cell lysis and generation of a luminescent signal proportional to the amount of ATP present. The amount of ATP is directly proportional to the number of cells present in culture, in agreement with previous reports. The CellTiter-Glo Assay generates a “glow-type” luminescent signal, produced by the luciferase reaction (Promega.com)”.

In data set [6] the test system is primary human fibroblasts derived from IPF patients (LL29 cells). The data set is described as follows: Inhibition of TGF-β1 induced fibrosis (αSMA staining) in LL29 fibroblasts. Conditions: Fibroblast, 96 h, LL29 cells, TGF-β1 20 ng/mL, 4 days, % αSMA positive cells. It is filed as cell-based. As for the experimental part: Representative compounds were screened using primary human fibroblasts (derived from IPF patients) treated with TGF-β1 to determine their ability to inhibit the fibrotic process.
LL29 cells were plated at 1,500 cells/well in 70 μL/well F12 medium supplemented with 1% Fetal Bovine Serum. […] Wells treated with TGF-β1 and containing DMSO were used as positive control, and cells with only DMSO were negative control. […] Following incubation for 4 days, SYTOX green nucleic acid stain (Life Technologies [Thermo Fisher Scientific]) was added to the wells at a final concentration of 1 μM and incubated at room temperature for 30 min.

Sequence of recombinant GSK3β kinase (P49841 whole entry): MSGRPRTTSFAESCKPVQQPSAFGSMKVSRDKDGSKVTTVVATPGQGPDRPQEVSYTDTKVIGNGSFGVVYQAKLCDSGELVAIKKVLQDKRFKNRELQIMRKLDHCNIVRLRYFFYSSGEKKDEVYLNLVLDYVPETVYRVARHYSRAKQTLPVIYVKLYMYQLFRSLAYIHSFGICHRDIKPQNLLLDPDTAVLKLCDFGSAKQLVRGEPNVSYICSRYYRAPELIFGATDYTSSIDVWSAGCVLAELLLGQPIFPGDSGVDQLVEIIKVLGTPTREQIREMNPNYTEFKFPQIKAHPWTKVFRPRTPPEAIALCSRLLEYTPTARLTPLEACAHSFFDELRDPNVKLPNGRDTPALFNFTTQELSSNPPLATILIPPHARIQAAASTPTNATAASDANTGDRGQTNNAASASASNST

`c1cc2cc(c1)-c1cccc3[nH]c(nc13)-c1n[nH]c3ccc(cc13)-c1cncc(n1)NCCO2` [Compound 109]: the IC50 on recombinant GSK3β kinase amounted to 0.062 µM; in data set [4], 0.096 µM. The compound also came in with a ring closure, isolated yield in data set [1] (from NCCOc1cccc(-c2cccc3[nH]c(-c4n[nH]c5ccc(-c6cncc(Cl)n6)cc45)nc23)c1, snar bond, 18-membered ring, DIEA, 19.0 mM, 110.0 °C) of 26.4%. Further, the EC50 came out at 34 nM in data set [2], 9 nM in data set [3] and 54 nM in data set [5].

Turning to `O=C1CCCc2cccc(c2)-c2cccc3[nH]c(nc23)-c2n[nH]c3ccc(cc23)-c2cncc(c2)N1` [Compound 71], the IC50 (on recombinant GSK3β kinase; in data set [4]) was 0.014 µM each time. The 50% effective concentration (EC50) in data set [2] stood at 17 nM; in data set [3] it was 3120 nM; in data set [6], 21 nM; in data set [5], 35 nM.

In data set [1] (from Nc1cncc(-c2ccc3c(c2)c(-c2nc4c(-c5cccc(CCC(=O)O)c5)cccc4[nH]2)nn3C(c2ccccc2)(c2ccccc2)c2ccccc2)c1, amide bond, 18-membered ring, HATU/DIEA/DMAP, 17.5 mM, 70.0 °C), `O=C1CCc2cccc(c2)-c2cccc3[nH]c(nc23)-c2nn(C(c3ccccc3)(c3ccccc3)c3ccccc3)c3ccc(cc23)-c2cncc(c2)N1` registered a ring closure, isolated yield of 49.2%.

With “(Z)-5,10-Dimethyl-1^1H,2^1H-5,10-diaza-1(2,4)-imidazo[4,5-c]pyridina-2(3,5)-indazola-3(3,5)-pyridinacyclodecaphane”, the ring closure, isolated yield in data set [1] (amine bond, 18-membered ring, KI/DIEA, 42.4 mM, 90.0 °C) was found to be 9.7%.

Consider `CN1CCCn2cc(nn2)-c2nccc3[nH]c(nc23)-c2n[nH]c3ccc(cc23)-c2cncc(c2)C1`, for which the ring closure, isolated yield in data set [1] (from CNCc1cncc(-c2ccc3[nH]nc(-c4nc5c(-c6cn(CCCCl)nn6)nccc5[nH]4)c3c2)c1, amine bond, 19-membered ring, DIEA, 16.7 mM, 100.0 °C) came out at 71.9%.

In the case of `O=C1CCc2cccc(c2)-c2ccnc3[nH]c(nc23)-c2n[nH]c3ccc(cc23)-c2cncc(c2)N1` [Compound 4, (Z)-2^3H,3^1H-5-aza-2(7,2)-imidazo[4,5-b]pyridina-3 (3,5)-indazola-4(3,5)-pyridina-1(1,3)-benzenacyclooctaphan-6-one], the IC50 on recombinant GSK3β kinase amounted to 0.494 µM; in data set [4] it was 0.204 µM. The EC50 in data set [2] is 7660 nM; in data set [3], 69 nM; in data set [5], > 10000 nM. Moreover, in data set [5] (SW480, read-out: percent inhibition at 10 μM), the inhibition at 10 µM was 49.5%.

For `c1ccc(C(c2ccccc2)(c2ccccc2)n2nc3c4cc(ccc42)-c2cncc(c2)OCCCc2cccc(c2)-c2cccc4[nH]c-3nc24)cc1`, in data set [1] (from Oc1cncc(-c2ccc3c(c2)c(-c2nc4c(-c5cccc(CCCBr)c5)cccc4[nH]2)nn3C(c2ccccc2)(c2ccccc2)c2ccccc2)c1, ether bond, 18-membered ring, K2CO3, 20.0 mM, 80.0 °C), the ring closure, isolated yield worked out at 50.8%.
